Reference: PubChem BioAssay AID179 (DTP/NCI, 2004)
Active and inactive are the calls of the source.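 The calls were made as follows: active = compounds giving half or more protection of infected cells from virus-caused growth loss, again on retest; inactive = the rest.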

Tested on: CEM cells HIV-1 protection, formazan growth assay
Test: NCI AIDS Antiviral Assay
Settings: for IC50: measured here: growth of uninfected CEM cells
Procedure, shortened: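 Human CEM cells, uninfected and HIV-1-infected, received five drug concentrations, and growth was read by soluble formazan assay. Compounds giving at least 50% protection were retested; reproducible 100% protection defined confirmed active.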

SMILES | outcome | EC50 | IC50
CN(C)CCCNC(=O)CNC(=O)c1cc(NC(=O)c2cc(NC(=O)c3cc(NC(=O)CCNC(=O)c4cc(NC(=O)c5cc(NC(=O)c6nccn6C)cn5C)cn4C)cn3C)cn2C)cn1C | inactive | – | –
CC(=O)OC1CC2(C)OC(Cc3ccccc32)O1 (stereo not drawn) | – | > 200 µM | > 200 µM
Nc1nc(Cl)c(N)c(NCC2(CO)CCC(OCc3ccccc3)C2)n1 (stereo not drawn) | – | > 200 µM | 26.9 µM
CC1OC(OC2C(O[C@H]3CC[C@@]4(C)[C@@H](CC[C@@H]5[C@@H]4CC[C@]4(C)[C@@H]6[C@H](C[C@@H]54)O[C@]4(CC[C@@H](C)CO4)[C@H]6C)C3)OC(CO)C(OC3OC(CO)C(O)C(OC4OCC(O)C(O)C4O)C3OC3OCC(O)C(O)C3O)C2O)C(O)C(O)C1O (stereo partly drawn) | – | > 2 µM | 0.832 µM
O=C(Nc1ccc(S(=O)(=O)Nc2ncccn2)cc1)c1ccc(C(=O)Nc2ccc(S(=O)(=O)Nc3ncccn3)cc2)cc1 | – | > 200 µM | > 200 µM
Cc1ccc(S(=O)(=O)N2CC2CCCCC=O)cc1 (stereo not drawn) | – | > 200 µM | 31.6 µM
CCCCCCN=Cc1c(O)c(O)c(C(C)C)c2cc(C)c(-c3c(C)cc4c(C(C)C)c(O)c(O)c(C=NCCCCCC)c4c3O)c(O)c12 | – | > 200 µM | 129 µM
NC(=S)N/N=C1\CC(c2ccccc2)Nc2ccccc21 (stereo not drawn) | inactive | – | –
Cc1ccc(/C=c2\c(=O)[nH]c3nc4ccccc4c(=O)n23)cc1 | – | > 200 µM | 22.4 µM
Cc1ccc(-c2cc(=O)c3cc(C)c(C)c(C(=O)O)c3o2)cc1N | inactive | – | –
CC(C)OC(=O)C1Cc2c([nH]c3ccccc23)C(c2ccccc2)N1 (stereo not drawn) | inactive | – | –
CCOC(=O)C(CCSC)(CCSC)C(=O)OCC | – | > 200 µM | > 200 µM
COc1cc(C(=O)N(C)N(C)C)cc(OC)c1OC | – | > 200 µM | > 200 µM
CCOC(=O)[C@H]1C[C@@H](C(=O)c2ccccc2)N2N=C(c3ccc(Br)cc3)C=C[C@H]12 | – | > 100 µM | > 100 µM
Cc1c(C2(c3cc(C(C)C)c(O)c(Br)c3C)OS(=O)(=O)c3ccccc32)cc(C(C)C)c(O)c1Br | – | > 288 µM | 97.7 µM
O=C1CC(=O)NC(=NN2C(=O)/C(=C/c3ccc(Cl)cc3)N=C2c2ccccc2)N1 | – | > 200 µM | 32.4 µM
CC(SCCCCCCCCCCSC(C)C(=O)O)C(=O)O (stereo not drawn) | – | > 141 µM | > 141 µM
Cc1cc(S(=O)(=O)n2ccnc2Oc2ccc(N)cc2)c(SSc2cc(Cl)c(C)cc2S(=O)(=O)n2ccnc2Oc2ccc(N)cc2)cc1Cl | – | > 100 µM | 21.9 µM
CN(C)c1ccc(/C=C/c2ccc(/C=C/c3ccc(N(C)C)cc3)cc2)cc1 | inactive | – | –
Cc1ccc(S(=O)CC(CF)OCn2cc(C)c(=O)[nH]c2=O)cc1 (stereo not drawn) | inactive | – | –
Cc1oc2nc(N(C)C)n3c(C)nnc3c2c1C | inactive | – | –
CC1(n2nc(-c3ccccc3)n(-c3ccccc3)c2=O)CSC1 | – | > 41.7 µM | > 41.7 µM

SMILES | outcome | EC50 | IC50
CCCC(=O)N/S(=N/S(=O)(=O)c1ccc(Cl)cc1)C(Cl)(Cl)Cl (stereo not drawn) | – | 162 µM | > 200 µM
CC(NC(=O)c1ccccc1SC(=O)CCCCC[n+]1ccccc1)C(N)=O (stereo not drawn) | – | 2.75 µM | 30.2 µM
Cc1cc(N(CCC#N)CCC#N)ccc1/C=C(\NC(=O)/C=C/c1ccccc1)C(=O)Nc1ccccc1Cl | inactive | – | –
Cc1oc2nc(N(C)C)nc(Cl)c2c1C | inactive | – | –
O=C(Cn1c(=O)oc2ccc(C(=O)c3ccccc3Cl)cc21)c1ccc([N+](=O)[O-])cc1 | – | > 200 µM | 17 µM
COC(=O)C1Cc2c([nH]c3ccccc23)-c2[nH]c3ccccc3c2CC(NC(C)=O)C(=O)NCC(=O)N1 (stereo not drawn) | – | > 200 µM | > 200 µM
C[N+](C)(C)CC1CCCC/C1=N\O (stereo not drawn) | – | > 794 µM | > 794 µM
O=C1CCCC(C(Sc2ccccc2)(Sc2ccccc2)Sc2ccccc2)C1 (stereo not drawn) | – | > 200 µM | 12 µM
Cc1ccc(OCC2OC(n3cnc4c(Cl)nc(Nc5cc(Cl)cc(Cl)c5)nc43)CC2Oc2ccc(C)cc2)cc1 (stereo not drawn) | – | > 200 µM | > 200 µM
N#C/C(=C1\SCC(=O)N1c1ccccc1)c1nc2ccccc2[nH]1 | – | > 4.37 µM | > 4.37 µM
CCC1(Br)C(=O)NC(=O)NC1=O | – | 42.7 µM | 115 µM
CCOC(=O)/C=C/c1cccc(Cl)c1 | – | > 24.5 µM | > 24.5 µM
CCOC(=O)c1nc2ccccc2nc1Nc1cc(OC)c(OC)c(OC)c1 | – | > 200 µM | > 200 µM
Nc1nc(C(=O)O)c(N)c(=O)[nH]1 | – | > 200 µM | > 200 µM
CC(=O)C(CN(C(C)C)C(C)C)C(c1ccccc1)c1c(O)c2ccccc2oc1=O (stereo not drawn) | – | > 85.1 µM | 75.9 µM
CC1(C)CCCCCCCCCC(C)(CCCCCCCCCCCCO)C1=O (stereo not drawn) | – | > 200 µM | 18.6 µM
CC(=O)[CH-]C(C)=O.[CH2-]C.[CH2-]C.[Tl+3] | – | > 501 µM | > 501 µM
Cc1ccccc1NC(=O)/C(=N/NC(=O)CC#N)C1C(=O)N(c2ccccc2)N=C1N (stereo not drawn) | – | > 12.6 µM | > 12.6 µM
COc1ccc(C2=C(OC(C)=O)c3cccn3-c3ccccc3S2)cc1 | – | > 200 µM | 1.32 µM
Cc1ccc(S(=O)c2cccs2)cc1 (stereo not drawn) | – | > 1120 µM | 182 µM
O=C(Nc1ccc(Cl)cc1Cl)c1c/c(=N\O)c2ccc(O)cc2o1 | inactive | – | –
O=C(CC(=O)Nc1ccccc1Cl)NNC(c1cc(N=Nc2ccc(Br)cc2)ccc1O)P(O)O (stereo not drawn) | – | > 100 µM | 1.32 µM

SMILES | outcome | EC50 | IC50
N#CC(C#N)=C1NC(=O)C(c2ccccc2)C(=O)N1 (stereo not drawn) | inactive | – | –
COC(=O)C(=O)C(/C=N/C(=S)NC1CCCCC1)=C(\O)c1ccc(F)cc1 | – | > 200 µM | > 200 µM
CC/C(C)=C1/CC(C)(C)N=C1C | – | > 200 µM | 89.1 µM
CCCCCCCCC(C)CCCCCCCCC(=O)O (stereo not drawn) | inactive | – | –
COC(=O)CCc1ccc2c(c1)CC1(C2)Cc2ccc(CCC(=O)OC)cc2C1 | – | > 200 µM | 57.5 µM
O=[N+]([O-])O.[Tb] | inactive | – | –
COc1ccc(Br)c(CN2CCc3ccccc32)c1OS(=O)(=O)c1ccc(C)cc1 | inactive | – | –
CCn1c(=O)c2c(=O)[nH][nH]c2c2ccccc21 | – | > 200 µM | > 200 µM
CCCCCC=C(c1cc(Cl)c(OC)c(C(=O)OC)c1)c1cc(Cl)c(OC)c(C(=O)OC)c1 | – | 17.8 µM | 28.8 µM
CC1(C)CC(=O)C2=C(C1)Nc1ccccc1NC2c1ccc([N+](=O)[O-])cc1 (stereo not drawn) | – | > 200 µM | 29.5 µM
CCOP(=O)(OCC)C(C#N)Cc1ccco1 (stereo not drawn) | – | 41.7 µM | > 200 µM
O=[N+]([O-])c1ccc[c]([Sb](=[O])([OH])[OH])c1 | – | > 398 µM | > 200 µM
COc1ccc2c(c1)CCC1C(=O)NN=C21 (stereo not drawn) | – | > 776 µM | > 776 µM
N#C/C(=C(/C#N)c1ccccc1)c1ccccc1 | – | > 200 µM | > 200 µM
CCN(CC)c1ccc(NC(=S)NN)cc1 | – | > 200 µM | 11.2 µM
O=C1NN=C(c2ccccc2)SC1c1ccccc1 (stereo not drawn) | – | > 200 µM | > 200 µM
CC1N=C(c2ccccc2)OC1=O (stereo not drawn) | – | > 200 µM | > 200 µM
O/N=C/C1C(OCc2ccccc2)C(OCc2ccccc2)C(OCc2ccccc2)CN1Cc1ccccc1 (stereo not drawn) | inactive | – | –
O=[N+]([O-])c1cccc(S(=O)(=O)N2CCCC2)c1 | – | > 200 µM | 166 µM
CCC1(O)CC2CC(=O)OC2C1O (stereo not drawn) | – | > 200 µM | > 200 µM
C[CH2][Sn]1([CH2]C)[O]C2C(O)OC(CO)C(O)C2[O]1 (stereo not drawn) | – | > 200 µM | 3.16 µM
Cc1ccc2c(c1)CNc1ccc(C)cc1CN2 | inactive | – | –

SMILES | outcome | EC50 | IC50
CS(=O)(=O)Nc1ccc2ccccc2c1 | – | > 200 µM | 158 µM
N#CCCC(CC#N)N1CCN(C(CC#N)CCC#N)CC1 (stereo not drawn) | – | > 200 µM | > 200 µM
C=C1CC2OC2(C(=O)O[C@H]2CCC3[C@@H]4CCC5=CC(=O)CC[C@]5(C)C4CC[C@@]32C)C1=O (stereo partly drawn) | – | > 200 µM | 7.24 µM
CCOP(=O)(OCC)/C(C#N)=C/c1ccoc1 | – | > 977 µM | > 977 µM
CCCCCCCCCCCCCCCC=C(c1cc(Cl)c(OC)c(C(=O)OC)c1)c1cc(Cl)c(OC)c(C(=O)OC)c1 | – | > 6.61 µM | > 6.61 µM
CC1CC/C(=[N+](/C)Nc2ccc([N+](=O)[O-])cc2[N+](=O)[O-])C2CCC(C(C)C(=O)O)C=C12 (stereo not drawn) | inactive | – | –
Cc1ccc(/C=N/NS(=O)(=O)c2ccc(/C=C3\NC(=O)NC3=O)cc2)cc1 | – | > 200 µM | > 200 µM
c1cc(-c2cscc2-c2ccsc2)cs1 | – | > 200 µM | 110 µM
C[C@@H]([C@H]1[C@H](O)C[C@@]2(C)[C@@H]3C=C[C@H]4C(C)(C)[C@@H](N(C)C)CC[C@@]45C[C@@]35CC[C@]12C)N(C)C | – | > 100 µM | > 100 µM
CCOC(=O)/C(=C\c1ccc([N+](=O)[O-])cc1)C(C)=O | – | > 257 µM | 64.6 µM
O=C1NN2CCN=C2c2cccnc21 | – | > 1320 µM | > 1320 µM
CC(C)(C)OC(=O)C1C(=O)C(C(=O)OC(C)(C)C)C23CCCCCCCCCCC12C(C(=O)OC(C)(C)C)C(=O)C3C(=O)OC(C)(C)C (stereo not drawn) | – | > 18.6 µM | > 18.6 µM
Nc1ncnc2nc(CO)[nH]c12 | – | > 158 µM | > 158 µM
Cc1nn(C(=O)c2ccccc2O)c2c1C(c1ccccc1O)SC(N)=N2 (stereo not drawn) | – | > 2 µM | 0.933 µM
O=C([CH-]C(=O)c1ccccc1)c1ccccc1.O=C([CH-]C(=O)c1ccccc1)c1ccccc1.[OH-].[OH-].[Ti+4] | – | > 25.7 µM | > 25.7 µM
N#Cc1nc(-c2cccnc2)oc1N | – | > 200 µM | > 200 µM
O=c1c(Cl)c(N2CCCCC2)cnn1-c1ccccc1 | – | > 174 µM | > 174 µM
Cn1cnc([N+](=O)[O-])c1Sc1nccn1-c1cccc2ccccc12 | – | > 102 µM | 13.2 µM
Cc1[nH]ccc2c1[nH]c1cc(=O)ccc12 | – | > 1070 µM | 16.6 µM
CCOc1ccc(N=Cc2c3ccccc3nc3ccccc23)cc1 | inactive | – | –
CCCC(=O)OCc1cc(=O)n(C)c2c3c4c(cc12)c(C)cc(=O)n4CO3 | – | > 174 µM | 6.76 µM
O=C1c2ccccc2N2OC3(N4CCOCC4)CCCC3C12c1ccccc1 (stereo not drawn) | – | > 5.37 µM | > 5.37 µM
